Assay results as given in patent publication US7423054B2, “Therapeutic pyrazolo[3,4-b]pyridines and indazoles” (Warner Lambert Company LLC, priority 2004, dated 2008).
Counter-ions that a name gives are not always drawn.

Assays:
[1] = target: T1, human norepinephrine transporter (hNET) (Homo sapiens, UniProt P23975); experiment: hNET receptor binding ([125I]-RTI-55 displacement, membranes of transfected HEK-293 cells); settings: HEK-293 membranes, Ki from IC50 by Cheng-Prusoff, read-out: NET Ki
T1 construct: expressed in transfected cells; host or cells: HEK-293 cells (membrane preparation)
T1 sequence (P23975 whole entry): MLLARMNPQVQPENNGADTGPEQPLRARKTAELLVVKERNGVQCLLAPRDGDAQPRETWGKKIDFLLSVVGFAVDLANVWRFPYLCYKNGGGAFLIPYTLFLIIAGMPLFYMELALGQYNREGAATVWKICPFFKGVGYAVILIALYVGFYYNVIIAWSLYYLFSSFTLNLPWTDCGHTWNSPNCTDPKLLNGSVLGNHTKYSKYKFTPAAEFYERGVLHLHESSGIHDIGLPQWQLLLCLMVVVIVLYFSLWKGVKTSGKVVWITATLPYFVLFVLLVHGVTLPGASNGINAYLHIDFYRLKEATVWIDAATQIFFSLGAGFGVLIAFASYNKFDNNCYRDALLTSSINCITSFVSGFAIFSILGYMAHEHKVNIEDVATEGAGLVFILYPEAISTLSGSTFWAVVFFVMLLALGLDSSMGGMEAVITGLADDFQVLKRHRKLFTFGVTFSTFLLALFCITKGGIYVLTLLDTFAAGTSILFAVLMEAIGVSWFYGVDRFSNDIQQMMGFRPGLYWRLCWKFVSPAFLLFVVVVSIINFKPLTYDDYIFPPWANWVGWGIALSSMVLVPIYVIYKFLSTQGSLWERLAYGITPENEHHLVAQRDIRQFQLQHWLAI
Text: (§1) The ability of the compounds of the present invention to inhibit a norepinephrine transporter and/or a serotonin transporter can be determined using conventional radioligand receptor transport assays. The receptors can be heterologously expressed in cell lines and experiments conducted in membrane preparations from the cell lines that express a norepinephrine transporter and/or a serotonin transporter.
(§2) Cell pastes of HEK-293 cells transfected with a human norepinephrine transporter cDNA were prepared. The cell pastes were resuspended in 400 to 700 ml of Krebs-HEPES assay buffer (25 mM HEPES, 122 mM NaCl, 3 mM KCl, 1.2 mM MgSO4, 1.3 mM CaCl2, and 11 mM glucose, pH 7.4) with a Polytron homogenizer at setting 7 for 30 seconds. Aliquots of membranes (5 mg/ml protein) were stored in liquid nitrogen until used.
The binding assay was set up in Beckman deep-well polypropylene plates with a total volume of 250 μl containing: test compound (10^−5M to 10^−12M), cell membranes, and 50 pM [^125I]-RTI-55 (Perkin Elmer, NEX-272; specific activity 2200 Ci/mmol). The reaction was incubated by gentle agitation for 90 minutes at room temperature and was terminated by filtration through Whatman GF/C filter plates using a Brandel 96-well plate harvester. Scintillation fluid (100 μl) was added to each well, and bound [^125I]-RTI-55 was determined using a Wallac Trilux Beta Plate Counter. Test compounds were run in duplicate, and specific binding was defined as the difference between binding in the presence and absence of 10 μM desipramine.
Excel and GraphPad Prism software were used for data calculation and analysis. IC50 values were converted to Ki values using the Cheng-Prusoff equation. The Ki values (nM) for the hNET are reported below in Table 11.

[2] = target: T2, human serotonin transporter (hSERT) (Homo sapiens, UniProt P31645); experiment: hSERT receptor binding ([125I]-RTI-55 displacement, membranes of transfected HEK-293 cells); settings: HEK-293 membranes, Ki from IC50 by Cheng-Prusoff, read-out: SERT Ki
T2 construct: expressed in transfected cells; host or cells: HEK-293 cells (membrane preparation)
T2 sequence (P31645 whole entry): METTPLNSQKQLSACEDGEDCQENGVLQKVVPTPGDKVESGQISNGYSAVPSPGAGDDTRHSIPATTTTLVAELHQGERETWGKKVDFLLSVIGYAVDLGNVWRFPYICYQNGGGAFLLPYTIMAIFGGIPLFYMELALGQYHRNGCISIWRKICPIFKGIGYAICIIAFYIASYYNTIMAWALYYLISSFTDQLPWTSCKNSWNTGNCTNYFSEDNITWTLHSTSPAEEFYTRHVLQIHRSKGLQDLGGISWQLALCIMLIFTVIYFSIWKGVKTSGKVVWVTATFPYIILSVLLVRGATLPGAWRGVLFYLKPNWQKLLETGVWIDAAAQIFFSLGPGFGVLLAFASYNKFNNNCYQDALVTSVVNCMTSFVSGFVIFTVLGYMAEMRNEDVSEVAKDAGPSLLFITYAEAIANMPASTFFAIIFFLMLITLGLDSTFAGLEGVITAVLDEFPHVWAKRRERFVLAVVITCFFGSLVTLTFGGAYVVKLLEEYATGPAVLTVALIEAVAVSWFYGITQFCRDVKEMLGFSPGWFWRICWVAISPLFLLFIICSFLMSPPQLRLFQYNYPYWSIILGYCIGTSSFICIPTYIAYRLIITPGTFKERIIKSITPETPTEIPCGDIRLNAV
Method: as §1
as §2, with “serotonin” for “norepinephrine”, “Setting” for “setting”, “(˜2.5” for “(5”
Assays were set up in FlashPlates pre-coated with 0.1% PEI in a total volume of 250 μl containing: test compound (10^−5M to 10^−12M), cell membranes, and 50 pM [^125I]-RTI-55 (Perkin Elmer, NEX-272; specific activity 2200 Ci/mmol). The reaction was incubated and gently agitated for 90 minutes at room temperature, and terminated by removal of assay volume. Plates were covered, and bound [^125I]-RTI-55 was determined using a Wallac Trilux Beta Plate Counter. Test compounds were run in duplicate, and specific binding was defined as the difference between binding in the presence and absence of 10 μM citalopram.
Excel and GraphPad Prism software were used for data calculation and analysis. IC50 values were converted to Ki values using the Cheng-Prusoff equation. The Ki values (nM) for the hSERT are reported below in Table 11: […]

| Compound | Ki [1] | Ki [2] |
| --- | --- | --- |
| Fc1ccc(-n2nc(OC3CCNCC3)c3c(F)cccc32)cc1 [Example 83, 4-Fluoro-1-(4-fluoro-phenyl)-3-(piperidin-4-yloxy)-1H-indazole hydrochloride] | 49.3 nM | 191 nM |
| Fc1ccc(-n2nc(OC[C@H]3CCCNC3)c3c(F)cccc32)cc1 [Example 84, (S)-4-Fluoro-1-(4-fluoro-phenyl)-3-(piperidin-3-ylmethoxy)-1H-indazole hydrochloride] | 38.1 nM | 487 nM |
| Fc1ccccc1-n1nc(OC[C@H]2CCCNC2)c2c(F)cccc21 [Example 85, (S)-4-Fluoro-1-(2-fluoro-phenyl)-3-(piperidin-3-ylmethoxy)-1H-indazole hydrochloride] | 12.5 nM | 1010 nM |
| Fc1cc2c(OCC3CCCNC3)nn(-c3ccccc3)c2cc1F (stereo not drawn) [Example 86, 5,6-Difluoro-1-phenyl-3-(piperidin-3-ylmethoxy)-1H-indazole hydrochloride] | 114 nM | 101 nM |
| Fc1cc2c(OC3CCNCC3)nn(-c3ccccc3)c2cc1F [Example 87, 5,6-Difluoro-1-phenyl-3-(piperidin-4-yloxy)-1H-indazole hydrochloride] | 197 nM | 57 nM |
| Fc1ccc(-n2nc(OC3CCNCC3)c3c(F)cccc32)c(F)c1 [Example 88, 1-(2,4-Difluoro-phenyl)-4-fluoro-3-(piperidin-4-yloxy)-1H-indazole hydrochloride] | 16.3 nM | 88.1 nM |
| Fc1ccc(-n2nc(OC[C@H]3CCCNC3)c3c(F)cccc32)c(F)c1 [Example 89, (S)-1-(2,4-Difluoro-phenyl)-4-fluoro-3-(piperidin-3-ylmethoxy)-1H-indazole hydrochloride] | 22.4 nM | 403 nM |

Second part, the compound after the results:

| Ki [1] | Ki [2] | Compound |
| --- | --- | --- |
| 10.2 nM | 142 nM | Fc1ccc(F)c(-n2nc(OC3CCNCC3)c3c(F)cccc32)c1 [Example 90, 1-(2,5-Difluoro-phenyl)-4-fluoro-3-(piperidin-4-yloxy)-1H-indazole hydrochloride] |
| 7.88 nM | 610 nM | Fc1ccc(F)c(-n2nc(OC[C@H]3CCCNC3)c3c(F)cccc32)c1 [Example 91, (S)-1-(2,5-Difluoro-phenyl)-4-fluoro-3-(piperidin-3-ylmethoxy)-1H-indazole hydrochloride] |
| 28.5 nM | 126 nM | Fc1ccc(-n2nc(OC[C@@H]3CCNC3)c3c(F)cccc32)c(F)c1 [Example 92, (R)-1-(2,4-Difluoro-phenyl)-4-fluoro-3-(pyrrolidin-3-ylmethoxy)-1H-indazole hydrochloride] |
| 16.4 nM | 224 nM | Fc1ccc(F)c(-n2nc(OC[C@@H]3CCNC3)c3c(F)cccc32)c1 [Example 93, (R)-1-(2,5-Difluoro-phenyl)-4-fluoro-3-(pyrrolidin-3-ylmethoxy)-1H-indazole hydrochloride] |
| 40.2 nM | 2850 nM | Fc1ccc(-n2nc(OC[C@@H]3CNCCO3)c3c(F)cccc32)c(F)c1 [Example 94, (S)-1-(2,4-Difluoro-phenyl)-4-fluoro-3-(morpholin-2-ylmethoxy)-1H-indazole hydrochloride] |
| 5.47 nM | 3470 nM | Fc1ccc(F)c(-n2nc(OC[C@@H]3CNCCO3)c3c(F)cccc32)c1 [Example 95, (S)-1-(2,5-Difluoro-phenyl)-4-fluoro-3-(morpholin-2-ylmethoxy)-1H-indazole hydrochloride] |
| 28.5 nM | 39.5 nM | Fc1ccc2c(c1)c(OC1CCNCC1)nn2-c1ccc(F)c(F)c1 [Example 97, 1-(3,4-Difluoro-phenyl)-5-fluoro-3-(piperidin-4-yloxy)-1H-indazole hydrochloride] |
| 27.3 nM | 3860 nM | Fc1ccccc1-n1nc(OC[C@@H]2CNCCO2)c2c(F)cccc21 [Example 98, (S)-(+)-4-Fluoro-1-(2-fluorophenyl)-3-(morpholin-2-ylmethoxy)-1H-indazole maleate] |
